Two compounds from ChEMBL document CHEMBL5647694, “Novel orally bioavailable EZH1/2 dual inhibitors with greater antitumor efficacy than an EZH2 selective inhibitor” (Cancer Sci, 2017) can be followed below.

The nature of data set [1]: Toxicity in Crl:CD Sprague-Dawley rat assessed as atrophy of spleen at 100 mg/kg, po administered daily for 14 days by hematoxylin and eosin staining based analysis. The following applies: in vivo, 336 h, time 14 day. The format is organism-based.
Data set [2] in a line: Cmax in Crl:CD Sprague-Dawley rat at 100 mg/kg, po by LC/MS/MS analysis. The format is ADME, organism-based. The settings on record: in vivo.
The nature of data set [3]: Toxicity in Crl:CD Sprague-Dawley rat assessed as albumin level in blood at 100 mg/kg, po administered daily for 14 days (reference value: 3.85+/-0.129 g/dL). The format is organism-based. The following applies: in vivo, 336 h, time 14 day.
The nature of data set [4]: Toxicity in Crl:CD Sprague-Dawley rat assessed as alkaline phosphatase level in blood at 100 mg/kg, po administered daily for 14 days (reference value: 1340+/-199 U/L). Format: organism-based. The settings on record: in vivo, 336 h, time 14 day.
The nature of data set [5]: Toxicity in Crl:CD Sprague-Dawley rat assessed as neutrophil count in blood at 100 mg/kg, po administered daily for 14 days (reference value: 1.73+/-0.276 10^3/uL). The format is organism-based. The following applies: in vivo, 336 h, time 14 day.
Data set [6] is described as follows: Toxicity in Crl:CD Sprague-Dawley rat assessed as abnormal clinical signs at 100 mg/kg, po administered daily for 14 days. The format is organism-based. The following applies: in vivo, 336 h, time 14 day.
A short description of data set [7]: Toxicity in Crl:CD Sprague-Dawley rat assessed as […] dehydrogenase level in blood at 100 mg/kg, po administered daily for 14 days (reference value: 103 +/-16.1 U/L). The format is organism-based. The following applies: in vivo, 336 h, time 14 day.
The nature of data set [8]: Toxicity in Crl:CD Sprague-Dawley rat assessed as alanine aminotransferase level in blood at 100 mg/kg, po administered daily for 14 days (reference value: 35.5+/-1.91 U/L). The following applies: in vivo, 336 h, time 14 day. The format is organism-based.
Another data set concerns RL. As to the kind of experiment: Antitumor activity against human RL cells assessed as cell growth inhibition treated for 10 to 15 days. Format: functional. The settings on record: time 10-15 day.
Another data set has as its system MKN-45. Put plainly: Antitumor activity against human MKN-45 cells assessed as cell growth inhibition treated for 10 to 15 days. The format is functional. The settings on record: time 10-15 day.
The nature of data set [9]: Antitumor activity against human PCM6 cells assessed as cell growth inhibition treated for 10 to 15 days. Format: functional. The settings on record: time 10-15 day.
The test system of another data set is NCI-H520. As to the kind of experiment: Antitumor activity against human NCI-H520 cells assessed as cell growth inhibition treated for 10 to 15 days. Format: functional. The following applies: time 10-15 day.
For another data set, the system named is MDA-MB-468. Put plainly: Antitumor activity against human MDA-MB-468 cells assessed as cell growth inhibition treated for 10 to 15 days. The format is functional. The following applies: time 10-15 day.
The test system of a further data set is HCC1143. As to the kind of experiment: Antitumor activity against human HCC1143 cells assessed as cell growth inhibition treated for 10 to 15 days. The format is functional. The settings on record: time 10-15 day.
The next data set relates to NCI-H446. As to the kind of experiment: Antitumor activity against human NCI-H446 cells assessed as cell growth inhibition treated for 10 to 15 days. Format: functional. The settings on record: time 10-15 day.
Data set [10] addresses Eukaryotic translation initiation factor 2-alpha kinase 3 (Homo sapiens) (UniProt Q9NZJ5). Put plainly: Inhibition of N-terminal GST-fused human PEK catalytic domain (536 to 1116 residues) expressed in Escherichia coli expression system using SRPKtide as substrate at 1 uM in presence of ATP by Mobility shift assay.
Another data set relates to Toledo. As to the kind of experiment: Antitumor activity against human Toledo cells assessed as cell growth inhibition treated for 10 to 15 days. The settings on record: time 10-15 day. Format: functional.
For another data set, the system named is BT-20. As to the kind of experiment: Antitumor activity against human BT-20 cells assessed as cell growth inhibition treated for 10 to 15 days. The settings on record: time 10-15 day. The format is functional.
Another data set deals with MLMA. As to the kind of experiment: Antitumor activity against human MLMA cells assessed as cell growth inhibition treated for 10 to 15 days. The settings on record: time 10-15 day. Format: functional.
A further data set has as its system KCL-22. Put plainly: Antitumor activity against human KCL-22 cells assessed as cell growth inhibition treated for 10 to 15 days. The following applies: time 10-15 day. The format is functional.
A further data set has as its system MOLM-14. As to the kind of experiment: Antitumor activity against human MOLM-14 cells assessed as cell growth inhibition treated for 10 to 15 days. The format is functional. The following applies: time 10-15 day.
In data set [11] the target is Histone-lysine N-methyltransferase 2C (Homo sapiens, UniProt Q8NEZ4). Put plainly: Inhibition of human MLL3 using Core Histone and [3H]SAM as substrate incubated for 30 mins to 1 hr by HotSpot kinase assay.
Data set [12] in a line: Antitumor activity against human COV362 cells assessed as cell growth inhibition treated for 10 to 15 days. The following applies: time 10-15 day. The format is functional.
The next data set deals with NCI-H1092. Put plainly: Antitumor activity against human NCI-H1092 cells assessed as cell growth inhibition treated for 10 to 15 days. The format is functional. The settings on record: time 10-15 day.
A further data set concerns MX1. As to the kind of experiment: Antitumor activity against human MX1 cells assessed as cell growth inhibition treated for 10 to 15 days. The settings on record: time 10-15 day. The format is functional.
The nature of data set [13]: Antitumor activity against human MINO cells assessed as cell growth inhibition treated for 10 to 15 days. Format: functional. The following applies: time 10-15 day.
Another data set concerns A-427. As to the kind of experiment: Antitumor activity against human A-427 cells assessed as cell growth inhibition treated for 10 to 15 days. Format: functional. The settings on record: time 10-15 day.
In the next data set the test system is MOLT-4. Put plainly: Antitumor activity against human MOLT-4 cells assessed as cell growth inhibition treated for 10 to 15 days. The following applies: time 10-15 day. The format is functional.
In a further data set the test system is CW-2. Put plainly: Antitumor activity against human CW-2 cells assessed as cell growth inhibition treated for 10 to 15 days. Format: functional. The settings on record: time 10-15 day.

pIC50: −log10 of the molar value.

Chain of Eukaryotic translation initiation factor 2-alpha kinase 3 (Homo sapiens) (Q9NZJ5 whole entry, the tested form may be a part): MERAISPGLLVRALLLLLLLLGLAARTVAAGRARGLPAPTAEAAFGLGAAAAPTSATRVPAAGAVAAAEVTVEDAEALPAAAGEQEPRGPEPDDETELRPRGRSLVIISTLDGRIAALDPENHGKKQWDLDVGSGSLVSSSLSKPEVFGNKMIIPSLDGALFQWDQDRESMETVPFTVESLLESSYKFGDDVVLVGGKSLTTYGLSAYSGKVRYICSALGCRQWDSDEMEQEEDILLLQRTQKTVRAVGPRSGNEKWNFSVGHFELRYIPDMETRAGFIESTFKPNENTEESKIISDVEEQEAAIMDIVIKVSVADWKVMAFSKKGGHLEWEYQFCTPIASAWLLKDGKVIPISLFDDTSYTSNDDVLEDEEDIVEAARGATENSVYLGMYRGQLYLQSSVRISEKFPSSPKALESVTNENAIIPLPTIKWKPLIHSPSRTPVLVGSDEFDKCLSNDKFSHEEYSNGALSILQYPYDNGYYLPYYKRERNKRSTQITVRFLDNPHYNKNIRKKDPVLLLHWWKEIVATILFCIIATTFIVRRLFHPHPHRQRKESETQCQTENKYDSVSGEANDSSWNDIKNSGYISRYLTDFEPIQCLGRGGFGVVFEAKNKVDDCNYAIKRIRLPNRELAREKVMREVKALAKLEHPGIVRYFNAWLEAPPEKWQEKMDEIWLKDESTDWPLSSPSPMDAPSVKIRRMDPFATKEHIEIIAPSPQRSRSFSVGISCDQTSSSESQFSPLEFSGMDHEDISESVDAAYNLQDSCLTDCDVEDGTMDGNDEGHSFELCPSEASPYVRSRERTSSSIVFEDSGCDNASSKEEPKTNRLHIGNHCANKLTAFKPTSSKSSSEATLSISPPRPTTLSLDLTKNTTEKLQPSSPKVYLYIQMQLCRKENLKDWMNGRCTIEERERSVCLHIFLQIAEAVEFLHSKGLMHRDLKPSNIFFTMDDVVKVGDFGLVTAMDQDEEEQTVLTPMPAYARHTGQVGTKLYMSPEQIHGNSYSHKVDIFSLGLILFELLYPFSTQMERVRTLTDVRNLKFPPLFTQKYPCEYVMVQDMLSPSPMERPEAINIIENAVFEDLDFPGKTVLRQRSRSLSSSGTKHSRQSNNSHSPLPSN

By Cmax is commonly meant the highest concentration seen after dosing. For the compound `Cc1cc(C)c(CNC(=O)c2cc(Br)c3c(c2C)O[C@@](C)([C@H]2CC[C@H](N(C)C)CC2)O3)c(=O)[nH]1`, the Activity entry in data set [1] was “Toxic”; in data set [3], 3.75 g/dL; in [4], 1120 U/L; in [5], 0.583 10^3 /uL; in [6] it was “Non-Toxic”; in data set [7], 137 U/L. In addition, the Activity in data set [8] turned out to be 27.5 U/L. For the same compound, the maximum concentration (Cmax) in [2] came to 2150 nM.
What is called GI50 is the concentration at which growth is held to half of that of the control. Broadly, the inhibition is the change of the read-out against control, counted positive when it falls. Broadly, the pIC50 is −log10 of the IC50, conventionally taken in molar units. The low end stands for a high IC50, the high end for a low IC50. Regarding `Cc1cc(C)c(CNC(=O)c2cc(Cl)c3c(c2C)O[C@@](C)([C@H]2CC[C@H](N(C)C)CC2)O3)c(=O)[nH]1` [VALEMETOSTAT], the concentration for 50% growth inhibition (GI50) in the data set with RL was over 1000 nM; in the data set on MKN-45 it was over 1000 nM; in data set [9] it was 32.5 nM; with NCI-H520, over 1000 nM; with MDA-MB-468, over 1000 nM; with HCC1143, over 1000 nM. For the same compound, the GI50 was 124 nM in the data set with NCI-H446; over 1000 nM in the data set on Toledo; over 1000 nM in the data set with BT-20; 273 nM in the data set with MLMA; 138 nM in the data set with KCL-22; 70 nM in the data set on MOLM-14. Further, the concentration for 50% growth inhibition (GI50) in [12] was over 1000 nM; in the data set with NCI-H1092 it was over 1000 nM; in the data set with MX1, over 1000 nM; in data set [13], 20.7 nM; in the data set with A-427 it was over 1000 nM; in the data set on MOLT-4, 120 nM. In addition, the 50% growth inhibitory concentration (GI50) with CW-2 was over 1000 nM. The inhibition in data set [10] is -9.8%. Besides, the pIC50 in [11] was 4.00.
